The text below walks through data of paper PMC12040169 (PLOS Biology, 2025).

For orientation: viability means a read-out of living cells in per cent, often relative to untreated cells.

The nature of the series: in vitro. The conditions noted are these: human, hela cells, % viability.
Turning to `NC(=O)C1CCN(C(=O)c2cc3c(=O)n4ccccc4nc3s2)CC1` [CBK296938], the viability at 28.5 h, 10 µM amounted to 89.9%.

As to `COC(=O)c1c(COC(=O)c2cnc(Cl)c(Cl)c2)nc2ccccc2c1C` [CBK296940], the viability at 28.5 h, 10 µM was found to be 102%.

In the case of `COc1cc(C=Cc2cc(C(=O)O)c3ccccc3n2)cc(Cl)c1OC(C)C` [CBK296941], the viability at 28.5 h, 10 µM was determined as 93.7%.

`Cc1nn(Cc2ccccc2)c(Cl)c1C=Cc1cc(C(=O)O)c2ccccc2n1` [CBK296942]: the viability at 28.5 h, 10 µM was determined as 95.4%.

As to `CCN(c1ccccc1)S(=O)(=O)c1ccc(C(=O)NC(C)c2ccc3c(c2)OCCO3)cc1` (stereo not drawn) [CBK296945], the viability at 28.5 h, 10 µM turned out to be 83.5%.

`COc1ccc(S(=O)(=O)Nc2cc(C(=O)O)ccc2C)cc1NC(C)=O` [CBK296946]: the viability at 28.5 h, 10 µM was determined as 93.4%.

Consider `O=C(CCn1c(CO)nc2ccccc21)c1ccccc1` [CBK296947], for which the viability at 28.5 h, 10 µM was determined as 102%.

As to `CC(C)NS(=O)(=O)c1ccc(NS(=O)(=O)c2cc(C(=O)O)ccc2Cl)cc1` [CBK296951], the viability at 28.5 h, 10 µM is 99.5%.

On to `CCOc1cc(C=Cc2cc(C(=O)O)c3ccccc3n2)ccc1OC(F)F` [CBK296952], for which the viability at 28.5 h, 10 µM worked out at 86.3%.

With `COc1ccc(C=Cc2cc(C(=O)O)c3ccccc3n2)cc1OC(F)F` [CBK296953], the viability at 28.5 h, 10 µM amounted to 85.9%.

With `Cc1cc(C)cc(N(CCC#N)C(=O)CSc2nnc[nH]2)c1` [CBK296955], the viability at 28.5 h, 10 µM stood at 101%.

For `O=c1cc(CO)oc(C(Nc2ccccn2)c2ccsc2)c1O` (stereo not drawn) [CBK296956], the viability at 28.5 h, 10 µM was found to be 106%.

Take `Cc1sc(NC(=O)c2ccccc2)c(C(Nc2ccccn2)c2ccc(F)cc2)c1C` (stereo not drawn) [CBK296957]: the viability at 28.5 h, 10 µM was determined as 89.7%.

In the case of `CCC(C)NC(=O)CSc1nnc(-c2cccs2)n1CC` (stereo not drawn) [CBK296960], the viability at 28.5 h, 10 µM was determined as 86.3%.

Consider `CC(=O)c1ccc(N2CCN(S(=O)(=O)c3ccc(O)c(C(=O)O)c3)CC2)cc1` [CBK296961], for which the viability at 28.5 h, 10 µM is 94%.

For the compound `CCN(CC)CCNC(=O)c1ccc(NS(=O)(=O)c2cc(C(=O)O)ccc2OC)cc1` [CBK296962], the viability at 28.5 h, 10 µM worked out at 103%.

As for `O=C(CSc1n[nH]c(=O)n1Cc1ccccc1)NCc1ccc(-c2ccc(Cl)cc2)o1` [CBK296963], the viability at 28.5 h, 10 µM was determined as 102%.

`OCCN1CCN(C(c2cccs2)c2ccc3cccnc3c2O)CC1` (stereo not drawn) [CBK296964]: the viability at 28.5 h, 10 µM was 76.7%.

As for `CC(Sc1nnc(-c2ccc(Cl)cc2)n1CC(=O)O)C(=O)Nc1ccnn1C(C)C` (stereo not drawn) [CBK296970], the viability at 28.5 h, 10 µM was found to be 96.9%.

On to `O=C(O)C1CCN(C(=O)CSc2nnc(-c3ccccc3F)n2C2CCCC2)CC1` [CBK296971], for which the viability at 28.5 h, 10 µM came to 115%.

`Cc1nn(CCC#N)c2nc(-c3ccc(F)cc3)cc(C(=O)O)c12` [CBK296974]: the viability at 28.5 h, 10 µM worked out at 94.7%.

With `CCOC(=O)N1CCN(S(=O)(=O)c2cc(C(=O)O)c(Cl)cc2Cl)CC1` [CBK296975], the viability at 28.5 h, 10 µM was found to be 96.2%.

As to `CCCn1c(SCC(=O)NCCN2C(=O)CSC2=O)n[nH]c1=O` [CBK296976], the viability at 28.5 h, 10 µM was 89.2%.

Regarding `Cc1cnc(C(=O)OCc2cc(=O)n3ccsc3n2)cn1` [CBK296978], the viability at 28.5 h, 10 µM was 95.5%.

With `CSCCC(C(=O)O)N1C(=O)C(=Cc2ccc(-c3cc(Cl)cc(Cl)c3)o2)SC1=S` (stereo not drawn) [CBK296984], the viability at 28.5 h, 10 µM was found to be 87.3%.

As to `COCCOC(=O)C1=C(C)N(c2ccc(C(=O)O)cc2)C(=O)NC1c1ccccc1Cl` (stereo not drawn) [CBK296986], the viability at 28.5 h, 10 µM amounted to 97%.

Regarding `Cc1ccc(Nc2nc(Cn3nc(C(=O)O)c4ccccc4c3=O)cs2)cc1` [CBK296989], the viability at 28.5 h, 10 µM was 86.7%.

For `Cc1occc1-c1nnc(SC2CCCCN(C(=O)c3ccc(Cl)cc3)C2=O)n1C` (stereo not drawn) [CBK296990], the viability at 28.5 h, 10 µM was 97.9%.

As to `O=C(O)CCNC(=O)c1ccc(NS(=O)(=O)c2ccc(C3CCCCC3)cc2)cc1` [CBK296991], the viability at 28.5 h, 10 µM worked out at 96.1%.

Consider `CCOc1ccc(Oc2ccc(C(F)(F)F)cc2NC(=O)CCCC(=O)O)cc1` [CBK296993], for which the viability at 28.5 h, 10 µM amounted to 90.7%.

Take `O=C(Nc1ccc(-c2ccccc2)cc1)c1cccc(S(=O)(=O)NCC2CCCO2)c1` (stereo not drawn) [CBK296994]: the viability at 28.5 h, 10 µM was determined as 95.7%.

For `Cc1cccn2cc(CSc3nnc4[nH]c5ccccc5n34)nc12` [CBK296996], the viability at 28.5 h, 10 µM stood at 94.1%.

On to `Cc1cc(C(=O)CSc2nnnn2-c2ccc(O)cc2)c(C)n1Cc1ccc(F)cc1` [CBK297081], for which the viability at 28.5 h, 10 µM was 98.8%.

As for `Cc1nc2ccccc2n1CCNC(=O)c1ccccc1SCc1ccc(C#N)cc1` [CBK297082], the viability at 28.5 h, 10 µM was 106%.

In the case of `COc1cc(NC(=O)C2CCN(S(=O)(=O)c3cccs3)CC2)c(Cl)cc1C(=O)O` [CBK297085], the viability at 28.5 h, 10 µM is 99.7%.

On to `CCn1c(SCc2cc(Cl)c3c(c2)OCCO3)nnc1-c1ccc(OC)cc1` [CBK297086], for which the viability at 28.5 h, 10 µM stood at 88.9%.

For `COc1ccc(CN(C)C(=O)CCc2c(C)nc3c(cnn3C(C)C)c2C)cc1` [CBK297087], the viability at 28.5 h, 10 µM was 80.6%.

As for `COc1ccc(C(=O)CSc2nnc(-c3ccccc3)c3ccccc23)cc1OC` [CBK297088], the viability at 28.5 h, 10 µM is 93.3%.

Turning to `CC(C)(C)c1ccc(S(=O)(=O)N2CCN(CCC(=O)O)CC2)cc1` [CBK297089], the viability at 28.5 h, 10 µM is 103%.

Regarding `O=C(Nc1cccc(-c2nnc3n2CCCCC3)c1)[C@@H]1CCCN1C(=O)c1cccs1` [CBK297090], the viability at 28.5 h, 10 µM amounted to 109%.

On to `CN(c1ccccc1)S(=O)(=O)c1cccc(NC(=O)c2ccc(=O)[nH]n2)c1` [CBK297091], for which the viability at 28.5 h, 10 µM was 96.3%.

`Cc1nnc(Sc2nc(CN3CCOCC3)nc3scc(-c4cccs4)c23)n1C` [CBK297092]: the viability at 28.5 h, 10 µM was found to be 103%.

Regarding `COc1cc(C)c(CN2CCN(S(=O)(=O)c3cc(C(=O)O)cs3)CC2)cc1OC` [CBK297093], the viability at 28.5 h, 10 µM was 97.2%.

As for `CC1CCN(S(=O)(=O)c2ccc(C(=O)N3CCCCC3C(=O)O)cc2)CC1` (stereo not drawn) [CBK297094], the viability at 28.5 h, 10 µM came to 89.8%.

Consider `O=C(O)c1ccc(CNC(=O)c2ccc(Cl)c(S(=O)(=O)N3CCCC3)c2)cc1` [CBK297096], for which the viability at 28.5 h, 10 µM is 95.7%.

As to `Cc1ccc(-c2csc3ncnc(NCCCc4n[nH]c(N)c4C#N)c23)cc1` [CBK297100], the viability at 28.5 h, 10 µM worked out at 98.1%.

As to `CSCCC(NC(=O)c1ccc(S(=O)(=O)N2CC(C)OC(C)C2)cc1)C(=O)O` (stereo not drawn) [CBK297101], the viability at 28.5 h, 10 µM was 104%.

In the case of `CC(Sc1ncc(-c2ccc(F)cc2)n1Cc1ccccc1)C(=O)NC1CC1` (stereo not drawn) [CBK297105], the viability at 28.5 h, 10 µM stood at 108%.

Turning to `CC1CCN(S(=O)(=O)c2ccc(C(=O)N[C@@H](C)C(=O)O)cc2)CC1` [CBK297106], the viability at 28.5 h, 10 µM was determined as 96.6%.

Regarding `CSCc1ccc(C(=O)Nc2cc(C(=O)O)ccc2C)cc1` [CBK297107], the viability at 28.5 h, 10 µM was 93%.

For the compound `COc1ccc(-c2nnc(SC(C)c3nnc(-c4ccccc4)o3)n2CC(C)C)cc1` (stereo not drawn) [CBK297108], the viability at 28.5 h, 10 µM is 103%.

Regarding `CCCn1c(SCC(=O)N2CCN(C(=O)c3cccs3)CC2)n[nH]c1=O` [CBK297109], the viability at 28.5 h, 10 µM was 97.6%.

As for `O=C1COc2ccc(C(=O)CSc3nnc(C4CC4)n3C3CC3)cc2N1` [CBK297110], the viability at 28.5 h, 10 µM worked out at 73.4%.

As for `Cc1ccc2cc(COc3cccnc3[N+](=O)[O-])c(Cl)nc2c1C` [CBK297113], the viability at 28.5 h, 10 µM was 103%.
